In one series the target is T1, PPARγ (Homo sapiens, UniProt P37231).
T1 construct: expressed in transfected cells; host or cells: CV-1 cells (CCL-70, ATCC)
T1 sequence (P37231 1-505): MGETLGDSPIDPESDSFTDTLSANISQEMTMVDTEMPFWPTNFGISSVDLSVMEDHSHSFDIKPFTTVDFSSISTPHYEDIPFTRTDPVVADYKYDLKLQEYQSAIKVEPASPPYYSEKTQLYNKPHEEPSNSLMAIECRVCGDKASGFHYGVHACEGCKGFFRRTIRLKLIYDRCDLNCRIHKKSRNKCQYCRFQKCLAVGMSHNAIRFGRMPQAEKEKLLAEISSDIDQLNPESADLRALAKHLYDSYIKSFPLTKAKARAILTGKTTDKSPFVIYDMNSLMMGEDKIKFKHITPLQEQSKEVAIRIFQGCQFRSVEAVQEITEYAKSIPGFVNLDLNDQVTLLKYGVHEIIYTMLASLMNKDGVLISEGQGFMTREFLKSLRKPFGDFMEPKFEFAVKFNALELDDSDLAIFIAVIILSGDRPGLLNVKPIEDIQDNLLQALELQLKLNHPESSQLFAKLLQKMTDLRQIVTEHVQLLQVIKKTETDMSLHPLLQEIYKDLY
Put plainly: PPARγ transactivation assay in transfected CV-1 cells (luciferase reporter). Format: cell-based. Particulars: for Activation of PPARγ (in words): at doses reasonably achievable at therapeutic doses. Here is the method: ARBs, or derivatives thereof, may be tested for their ability to activate the various PPAR isoforms by utilizing standard screening methods known to those skilled in the art including but not limited to cell based transactivation assays or cell free assays that test the ability of a compound to activate a PPAR construct by measuring the output of a reporter signal that reflects the extent of the PPAR activation. For example, the angiotensin receptor blocker telmisartan is added to the culture media of CV1 cells or other cells that can be transfected with a full length or partial PPAR cDNA sequence together with a reporter construct containing a PPAR response element or other appropriate response element fused to a reporter gene such as luciferase. […] Cell extracts were assayed for luciferase and β-galactosidase activity using Promega (Madison, Wis.) assay systems. All treatments were performed in triplicate, and normalized for β-galactosidase activity. Agonist concentrations yielding half maximal activation (EC50 values) were calculated using GraphPad Prism version 3.03 (GraphPad Software, Inc., San Diego, Calif.).
For orientation: A reporter such as luciferase makes a cellular process visible.

Series [1] concerns mouse preadipocyte cell line (3T3-L1). Put plainly: In vitro adipocyte differentiation (adipogenesis) activity. The format is cell-based. As to the method:
The following examples 2 and 3 provide a generic means to measure adipocyte differentation to determine if one has an insulin-sensitizing agent. […] The cells are then plated at 1.5×10^4/cm^2 in a 96-well tissue culture plate (view plate, 96 white, Packard) coated with type 1 collagen. […] The compounds added from a stock solution of dimethyl sulfoxide (DMSO). […] DMSO (0.1%) was added to the control cultures. The medium was replaced with maintenance medium (DMEM supplemented with 5% of FBS and 100 ng/mL of insulin), and the cells cultured for 2 more days. Activity of stimulation of adipogenesis was determined by exposure of the cells to [14-C]-acetic acid (7.4 kBq/mL), and uptake of [14-C]-acetic acid monitored after 1 h of incubation. The medium is discarded and the cells washed twice with phosphate-buffered saline. The cells are air-dried, and […] of scintillation cocktail (Microscint-20, Packard) added to the wells, and counted with a Packard TopCount microplate scintillation counter.

The conditions of series [2]: patients with mild hypertension; cited from earlier work.
A short description of series [3]: Clinical trial in a patient with hypertension, hypertriglyceridemia and type 2 diabetes.
Series [4] can be described thus: Clinical trial in a patient with osteoarthritis and inflammation (elevated CRP). Particulars: for Serum CRP level: baseline 7.9. Format: in vivo, human. From the text:
A person with osteoarthritis and inflammation as judged by elevated C-reactive protein (CRP) levels was selected for therapy.

For series [5] the following is noted: conventional oral dosing; cited from earlier work.
Series [6] is classed as in vivo, human. From the text: Insulin resistance is defined as a state in which circulating insulin levels in excess of the normal response to a glucose load are required to maintain the euglycemic state (Ford ES, et al. JAMA. (2002) 287:356-9). Insulin resistance, and the response of a patient with insulin resistance to therapy, may be quantified by assessing the homeostasis model assessment to insulin resistance (HOMA-IR) score, a reliable indicator of insulin resistance (Katsuki A, et al. Diabetes Care 2001;24:362-5). The estimate of insulin resistance by the homeostasis assessment model (HOMA)-IR score is calculated with the formula (Galvin P, et al. Diabet Med 1992;9:921-8): HOMA-IR=[fasting serum insulin (μU/mL)]×[fasting plasma glucose (mmol/L)/22.5]
A person with the metabolic syndrome was selected for therapy. […] The patient has the metabolic syndrome as defined by the National Cholesterol Education Program. The metabolic syndrome is associated with a 5-9 fold increase in the risk for developing type 2 diabetes and a 2-3 fold increase risk in cardiovascular mortality.

The conditions of series [7]: obese Zucker rat, oral, extremely high dose; cited from earlier work.
The subject of a further series is human preadipocytes. The following applies: high concentrations; cited from earlier work.
Setting [8] is: 160 mg/day oral, after seven weeks.

“Also recorded” adds a separate entry of the source. Read-outs that look alike come from different tables or passages of the source.

Turning to `CCCCc1ncc(/C=C(\Cc2cccs2)C(=O)O)n1Cc1ccc(C(=O)O)cc1` [eprosartan], on PPARγ, the “Activation of PPARγ (in words)” value is listed as “do not activate PPARγ”. Besides, the “Promotion of adipogenesis (in words)” value in [1] is “did not promote adipogenesis”.
`CCCCc1nc(Cl)c(CO)n1Cc1ccc(-c2ccccc2-c2nn[nH]n2)cc1` [losartan]: the “Effect on glucose metabolism, insulin sensitivity, and serum concentrations” value in series [2] is “neutral effect”.
On to `CCCc1nc2c(C)cc(-c3nc4ccccc4n3C)cc2n1Cc1ccc(-c2ccccc2C(=O)O)cc1` [telmisartan], for which, on PPARγ, the “Activation of PPARγ / luciferase reporter gene activity (in words)” value is reported as “can activate PPARγ; also recorded: significant increase in reporter gene activity” and the half-maximal effective concentration (EC50) (usually the midpoint of the concentration-response curve) came out at 5.6 µM. In addition, the “PPARγ activation relative to maximum level of activity achieved by full agonists pioglitazone and rosiglitazone” value at PPARγ (CV-1 cells) was 25%-30%. For the same molecule, the “PPARγ activation (fold)” value on PPARγ (tested at 1-5 μM, CV-1 cells, 24 hr) was 5-8 fold. Moreover, the “Promotion of adipogenesis (in words)” value in series [1] is reported as “promote adipogenesis”. The HDL cholesterol in series [3] (80 mg/day oral, after three weeks, baseline 48) was found to be 50 mg/dL. Besides, the Blood pressure in [3] (80 mg/day oral, after three weeks, baseline 160/90) is 143/91. The same molecule returned a Fasting glucose in series [3] (80 mg/day oral, after three weeks, baseline 183) of 188 mg/dL. Besides, the Triglyceride in series [3] (80 mg/day oral, after three weeks, baseline 264) was found to be 281 mg/dL. Besides, in [3] (setting [8]), the Blood pressure is 131/81, the Glucose level turned out to be 145 mg/dL, the HDL cholesterol amounted to 60 mg/dL and the Triglyceride level worked out at 178 mg/dL. Moreover, in series [3] (patient with type 2 diabetes), the “Blood HDL-cholesterol (in words)” value was “elevated blood HDL-cholesterol”, the “Hyperglycemia (in words)” value is listed as “lowered the hyperglycemia” and the “Plasma triglycerides (in words)” value was “lowers plasma triglycerides”. For the same molecule, the “Fluid retention, peripheral edema, pulmonary edema, congestive heart failure on clinical examination” value in [3] (type 2 diabetes patient, 160 mg/day) is given as “no evidence of any increase in fluid retention, peripheral edema, pulmonary edema, or congestive heart failure”. Further, the “Serum CRP level” value in series [4] (80 mg/day oral, after 6 weeks) was 4.1 mg/L. Besides, in [4] (80 mg/day oral, after 9 weeks), the “Symptoms of inflammation and osteoarthritis” value is listed as “stabilized”; the “Serum CRP level” value came out at 3.9 mg/L. For the same molecule, in series [4] (osteoarthritis patient, 80 mg/day), the “Fluid retention, peripheral edema, pulmonary edema, congestive heart failure on clinical examination” value is listed as “no evidence of any increase in fluid retention, peripheral edema, pulmonary edema, or congestive heart failure”. For the same molecule, the “Concentrations that can be achieved in plasma” value in series [5] is 1000 to 5000 nM. Further, the “Diagnostic criteria of the metabolic syndrome (NCEP)” value in [6] (80 mg/day oral, after two weeks) is listed as “no longer meets the diagnostic criteria of the metabolic syndrome”. This molecule also had a Fasting glucose in series [6] (80 mg/day oral, after two weeks, baseline 118) of 105 mg/dL. This molecule also returned a Fasting triglyceride level in [6] (80 mg/day oral, after two weeks, baseline 129) of 115 mg/dL. Further, the Blood pressure in series [6] (80 mg/day oral, after two weeks, baseline 160/79) is given as 130/69. Besides, the “Insulin resistance as determined by HOMA-IR score (in words)” value in series [6] (patient with the metabolic syndrome) was “improved insulin resistance”.
For the molecule `CCCCC(=O)N(Cc1ccc(-c2ccccc2-c2nnn[nH]2)cc1)[C@H](C(=O)O)C(C)C` [valsartan], on PPARγ, the “Activation of PPARγ (in words)” value was “do not activate PPARγ”. Moreover, the “Promotion of adipogenesis (in words)” value in series [1] is given as “did not promote adipogenesis”.
Turning to `CCCCC1=NC2(CCCC2)C(=O)N1Cc1ccc(-c2ccccc2-c2nnn[nH]2)cc1` [irbesartan], at PPARγ, the “Activation of PPARγ / luciferase reporter gene activity (in words)” value is listed as “can activate PPARγ; also recorded: found to activate PPARgamma”. Further, at PPARγ (tested at 10 μM, CV-1 cells), the “PPARγ activation (fold activation)” value is given as 2-3 fold. Further, in series [7], the Insulin sensitivity result is on record as “improved insulin sensitivity” and the Lipid levels entry is listed as “failed to improve lipid levels”. For the same molecule, the Adipogenesis entry in the series with human preadipocytes is “can enhance adipogenesis”.

The values above are taken from US7232828B2, “PPAR Ligands that do not cause fluid retention, edema or congestive heart failure” (Bethesda Pharmaceuticals, Inc., priority 2002, dated 2007).
